In patent US11311513B2, “Methods, agents, and compositions for the treatment of acute myeloid leukemia” (UNIVERSITY OF CINCINNATI, priority 2017, dated 2022):

Legend:
[1] = system: Tet1 deficient mouse BM progenitor cells transduced with MLL-AF9; assay: Viability of MLL-AF9-transduced Tet1 deficient BM progenitor cells; type: cell-based; settings: 48 hrs; for cell viability: Tet1 deficient counterpart cells; for viability of cells with induced Tet1 deficiency: conditional Tet1 knockout, polyI:C induced, 500 nM
Experimental: FIG. 5. […] Gene expression levels are shown. […] ChIP-qPCR assay was carried out 48 hrs after drug treatment. Enrichment of STAT3, STAT5, or IgG at the TET1 promoter region and other regions are shown. […] BM progenitor cells of wild-type or Tet1^−/− mice were retrovirally transduced with MLL-AF9. […] Relative cell viabilities are shown. (m) Cre-Tet1f mouse BM progenitor cells were retrovirally transduced with MLL-AF9. […] Relative cell viability is shown. (n-o) THP-1 (n) and MONOMAC-6 (o) cells were infected with lentivirus of pLenti-puro vector-based Tet1 construct. […] Relative cell viability is shown. *, P<0.05; **, P<0.01, two-tailed t-test. Error bar indicates SD of triplicate experiments.
FIG. 13. […] (a-d) BM progenitor cells of wild-type or Tet1^−/− mice were retrovirally transduced with MLL-AF9. Infected cells were treated with 200 nM JAK/STAT inhibitors individually, including Pacritinib (a), KW-2449 (b), Stattic (c) or sc-355979 (d), for 48 hrs. Relative cell viabilities are shown. (e) Cre-Tet1^fl/fl mouse BM progenitor cells were retrovirally transduced with MLL-AF9. […] Cell viabilities (normalized to non-induced Cre-Tet1^fl/fl treated with DMSO control) are shown. ‘K, P<0.05; ‘K‘K, P<0.01, two-tailed t-test
siRNAs were transfected into MONOMAC-6 cells with Cell Line Nucleofector Kit V following program T-037, using the Amaxa Nucleofector Technology (Amaxa Biosystems, Berlin, Germany). Experiments were performed 48 h after transfection. Retrovirus infection of mouse BM progenitor cells were conducted as described previously with some modifications. Briefly, retrovirus vectors were co-transfected with pCL-Eco packaging vector (IMGENEX, San Diego, Calif.) into HEK293T cells using Effectene Transfection Reagent (Qiagen, Valencia, Calif.) to produce retrovirus. BM cells were harvested from a cohort of 4- to 6-week-old C57BL/6, Tet1^−/−, or Cre-Tet1^fl/fl donor mice after five days of 5-fluorouracil (5-FU) treatment, and primitive hematopoietic progenitor cells were enriched with Mouse Lineage Cell Depletion Kit (Miltenyi Biotec Inc., Auburn, Calif.). An aliquot of enriched hematopoietic progenitor cells was added to retroviral supernatant together with polybrene in cell culture plates, which were centrifuged at 2,000 g for 2 hours at 32° C. (i.e., spinoculation) and then the medium was replaced with fresh media and incubated for 20 hours at 37° C. Next day, the same procedure was repeated once. Infected cells were grown in RPMI 1640 medium containing 10 ng/mL murine recombinant IL-3, 10 ng/mL IL-6, 100 ng/mL murine recombinant SCF (R&D Systems, Minneapolis, Minn.), along with 1.0 mg/ml of G418. Experiments were performed 7 days after infection.
(§1) These experiments were conducted as described previously (Jiang, X., et al., Blockade of miR-150 Maturation by MLL-Fusion/MYC/LIN-28 Is Required for MLL-Associated Leukemia, Cancer Cell 22:524-35 (2012); Li, Z., et al., miR-196b directly targets both HOXA9/MEIS1 oncogenes and FAS tumour suppressor in MLL-rearranged leukaemia, Nat Commun 2:688 (2012)) with ApoLive-Glo Multiplex Assay Kit, or CellTiter 96 AQueous Non-Radioactive Cell Proliferation Assay Kit (Promega, Madison, Wis.).

[2] = system: THP-1 cells; assay: MTS cell viability, THP-1; type: cell-based; settings: Homo sapiens, 48 hrs, unit inferred
Experimental: (§2) In order to identify chemical compounds that may target TET1 signaling, the drug-sensitivity/gene expression database of a total of 20,602 chemical compounds in the NCI-60 collection of cancer cell samples was searched.
(§3) All cell lines were authenticated through STR profiling yearly.
as §1

[3] = system: MONOMAC-6, THP-1, KOCL-48 and KASUMI-1 cells; assay: MTS cell viability, four TET1-high AML cell lines together; type: cell-based
Experimental: as §2, §3, §1

[4] = system: KOCL-48 cells; assay: MTS cell viability, KOCL-48; type: cell-based; settings: 48 hrs, unit inferred
Experimental: as §2, §3, §1

[5] = target: STAT3 and the TET1 CpG island (Homo sapiens, UniProt P40763); assay: Electrophoretic mobility shift assay (EMSA); type: biochemical
Experimental: EMSA was conducted with EMSA Assay Kit (Signosis, Santa Clara, Calif.) according to the manufacturer's protocol with minor modifications. Briefly, purified STAT3 protein was incubated with Biotin-labeled TET1-CPG probe (hot probe) and/or cold probe, and then protein/DNA complexes were separated on a non-denaturing polyacrylamide gel. Bands were detected using Streptavidin-HRP conjugate and a chemiluminescent substrate. The sequences of the TET1-CPG probe are: Forward: 5′ Biotin-[…]-3′ (SEQ ID NO: 11); Reverse: 5′ Biotin-[…]-3′ (SEQ ID NO: 12).

[6] = in vivo; parameters: species or system C57BL/6 mice; settings: C57BL/6, mouse
Text: FIG. 17. […] Error bar indicates SD of triplicate experiments.

[7] = system: TET1-high AML (including MONOMAC-6, THP-1, and KASUMI-1) cells; assay: MTS viability of AML cell lines versus JAK/STAT inhibitors; type: cell-based; settings: MTS 48 hrs; up to 500 nM
Experimental: FIG. 4. […] (a) Structures of NSC-370284 and UC-514321. […] Cells were treated with drugs at indicated doses. Cell viability was detected by MTS 48 hrs post-treatment. Error bar indicates SD of triplicate experiments. […] Secondary BMT recipient mice were transplanted with primary leukemic BM cells with MLL-AF9 (f) or AML-ETO9a (g). […] Kaplan-Meier curves are shown. The P values were determined by log-rank test. […] Secondary BMT recipient mice were transplanted with primary leukemic BM cells with MLL-AF10 or FLT3-ITD/NPM1^mut. […] Kaplan-Meier curves are shown. The P values were determined by log-rank test. (j) Wright-Giemsa staining of mouse PB and BM, or H&E staining of mouse spleen and liver of MLL-AF9 AML secondary BMT recipients with or without drug treatment.
as §1

STAT3 and the TET1 CpG island, sequence (P40763 whole entry, species assumed): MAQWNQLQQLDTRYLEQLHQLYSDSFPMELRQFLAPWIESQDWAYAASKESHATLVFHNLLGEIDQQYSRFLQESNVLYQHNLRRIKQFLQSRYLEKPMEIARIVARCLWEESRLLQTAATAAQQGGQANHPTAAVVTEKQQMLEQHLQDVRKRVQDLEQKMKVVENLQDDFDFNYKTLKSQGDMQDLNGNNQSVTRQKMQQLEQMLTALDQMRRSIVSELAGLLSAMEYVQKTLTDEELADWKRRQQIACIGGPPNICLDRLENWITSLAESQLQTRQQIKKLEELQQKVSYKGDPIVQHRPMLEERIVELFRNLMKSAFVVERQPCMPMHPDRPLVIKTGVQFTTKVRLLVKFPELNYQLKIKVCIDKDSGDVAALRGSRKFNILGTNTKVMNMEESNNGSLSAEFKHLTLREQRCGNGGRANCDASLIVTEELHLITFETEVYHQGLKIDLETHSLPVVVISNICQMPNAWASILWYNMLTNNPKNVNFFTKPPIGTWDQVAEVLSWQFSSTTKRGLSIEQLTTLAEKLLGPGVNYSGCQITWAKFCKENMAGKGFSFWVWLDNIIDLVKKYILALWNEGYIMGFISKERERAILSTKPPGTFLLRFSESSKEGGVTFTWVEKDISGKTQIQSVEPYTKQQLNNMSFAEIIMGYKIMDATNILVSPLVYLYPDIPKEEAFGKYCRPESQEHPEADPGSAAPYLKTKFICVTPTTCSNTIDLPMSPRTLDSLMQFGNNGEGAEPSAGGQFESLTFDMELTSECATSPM

Compound	cell viability [1]	viability of cells with induced Tet1 deficiency [1]	IC50 [2]	inhibition of cell viability of all four TET1-high AML cell lines ([3]; 0, 50, 200, 500 nM, MTS 48 hours, among top 20 candidates)	cell viability at low dose, short term ([3]; 25 nM, 24 hours, MONOMAC-6, THP-1 and KOCL-48 cells)	IC50 ([3]; average over the cell lines, unit inferred)	IC50 [4]	association between STAT3 and the TET1 CpG island [5]	half-life [6]	AUC(0-inf) ([6]; ip, 15 mg/kg)	Clearance ([6]; ip, 15 mg/kg)	MRT ([6]; ip, 15 mg/kg)	Volume of Distribution ([6]; ip, 15 mg/kg)	half-life ([6]; ip, 15 mg/kg)	effect in repressing viability of TET1-high AML cells compared with NSC-370284 and other JAK/STAT inhibitors [7]
COc1cc(C(c2cc3c(cc2O)OCO3)N2CCCC2)cc(OC)c1OC (centres unmarked) [NSC-370284, 6-(1-Pyrrolidinyl(3,4,5-trimethoxyphenyl)methyl)-1,3-benzodioxol-5-ol]	no such inhibition	no significant effect	0.356 nM	most significant effects in inhibiting cell viability	very minor decrease	9.75 nM	38.2 nM	almost be completely blocked	–	–	–	–	–	–	–
CC(C)(C)c1cc(C(c2cc3c(cc2O)OCO3)N2CCOCC2)cc(C(C)(C)C)c1O (centres unmarked) [UC-514321, 6-{[4-Hydroxy-3,5-bis(2-methyl-2-propanyl)phenyl](4-morpholinyl)methyl}-1,3-benzodioxol-5-ol]	no such inhibition	no significant effect	–	–	–	–	–	–	11 h	29400 ± 2750 ng·h/mL	22.7 ± 1.3 mL/min/kg	16.1 ± 1.79 h	21.66 ± 1.74 L/kg	11 ± 2.51 h	enhanced effect
